Measured values from patent publication US20120028967A1 (priority 2009, published 2012).
Counter-ions that a name gives are not always drawn.

These compounds were tested against α7-subtype of nicotinic receptors (Rattus norvegicus, UniProt Q05941) (assay: biochemical).
Format: binding

α7-subtype of nicotinic receptors, sequence (Q05941 23-502): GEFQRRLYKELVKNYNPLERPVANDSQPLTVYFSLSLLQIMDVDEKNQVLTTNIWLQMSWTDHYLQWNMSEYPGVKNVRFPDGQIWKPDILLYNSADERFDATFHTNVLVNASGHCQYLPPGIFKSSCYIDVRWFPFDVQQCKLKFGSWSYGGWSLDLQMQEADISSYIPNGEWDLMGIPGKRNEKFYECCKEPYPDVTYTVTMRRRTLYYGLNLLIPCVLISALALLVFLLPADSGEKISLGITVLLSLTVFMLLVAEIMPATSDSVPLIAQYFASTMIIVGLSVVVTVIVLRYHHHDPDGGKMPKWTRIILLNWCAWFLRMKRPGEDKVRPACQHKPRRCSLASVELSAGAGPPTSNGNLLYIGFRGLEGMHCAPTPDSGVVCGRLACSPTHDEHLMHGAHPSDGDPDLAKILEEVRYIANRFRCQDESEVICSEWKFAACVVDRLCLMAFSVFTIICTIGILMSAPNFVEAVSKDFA

Row | Compound | IC50 [nM]
1 | Brc1cnc(N2CCN3CCC2CC3)nc1 [Compound 1, 4-(5-Bromo-pyrimidin-2-yl)-1,4-diaza-bicyclo[3.2.2]nonane fumaric acid salt] | 280
2 | Clc1cnc(N2CCN3CCC2CC3)nc1 [Compound 3, 4-(5-Chloropyrimidin-2-yl)-1,4-diazabicyclo[3.2.2]nonane fumaric acid salt] | 190
3 | Ic1cnc(N2CCN3CCC2CC3)nc1 [Compound 2, 4-(5-Iodopyrimidin-2-yl)-1,4-diazabicyclo[3.2.2]nonane fumaric acid salt] | 38
